Legend:
clams = conditions: sulfuric acid and low pH, previously found; cited from earlier work
cyanobacteria = assay: Treatment of Daybreak reservoirs infested with cyanobacteria; type: in vivo
Excerpt: (§1) As a control, Jordan Canal water, which was infected with cyanobacteria from Utah Lake, is directed to Daybreak and other areas. While treatment controlled cyanobacteria in Daybreak reservoirs, other areas that receive water from the Jordan Canal were still testing positive for cyanobacteria. As such, the treatment of sulfurous acid controlled the cyanobacteria in view of water ways further away (e.g., Blackridge Reservoir, Jordan River Narrows, and Wheeler Farm East Canal) still containing cyanobacteria. […] Since cyanobacteria are harmful to fish, the sulfurous acid actually improves the health of fish in the treated water.

fish or other animals = type: in vivo; conditions: Daybreak reservoirs, pH maintained between 6.8-7
Excerpt: as §1

zebra mussels = assay: Open-water pond treatment, mortality of zebra mussels; type: in vivo
Method: (§2) Applicant have performed studies and determined that the present water treatment methods with sulfurous acid provide about 100% kill of bryozoa in 48 hours, 100% kill of zebra mussels in 5 days, and 100% kill of Asiatic clams in less than one month. In these studies, the protocols introduced sulfurous acid into open water to achieve water pH levels between 6.0 and 6.5 in the treatment water within a control distance from the location of introduction. Accordingly, these pH ranges are sufficient to control these aquatic species. This allows these relatively higher pH ranges to control the aquatic species without compromising the body of water. The cyanobacteria can have a 100% kill from the sulfurous acid with a pH of the treated water between 6-7, or more preferably between 6.8-7.
(§3) In view of the disclosure provided herein, it is now possible to achieve about 100% kill rates on these aquatic pest species in any size body of water at ambient temperature and pressure. The water treatment is performed through the addition of sufficient sulfurous acid (as well as any sulfites and bisulfites in the sulfurous acid) so as to reduce pH between about 6.0-about 6.5 over hours to days to weeks. […] The mortality of each aquatic pest was measured progressively over time until all the aquatic pests in the pond were determined to be dead or at a level so low as to be unmeasurable.

anatoxin-a = assay: Cyanotoxin in treated Daybreak reservoirs; set-up: species or system cyanobacteria; conditions: Daybreak reservoirs (surge pond), pH maintained between 6.8-7
Excerpt: as §1

Asiatic clams = assay: Open-water pond treatment, mortality of Asiatic clams; type: in vivo
Method: as §2, §3

aquatic pests = assay: Water treatment, control of aquatic pests in general; type: in vivo
Excerpt: Thus, sulfurous acid can be used to treat water to control existing aquatic pest as well as condition the water to inhibit spreading of any aquatic pests introduced therein. This can inhibit spreading from a first body of water to a second body of water, such as from a pond to a stream or from a stream into a pond. While providing the sulfurous acid prohibits or prevents aquatic pest infestations or can be used as a prophylactic against aquatic pest infestations, application to the water can be done for the desire to control any aquatic pest in the water or soil in contact with the water (e.g., river bed, pond bed, shore, or other soil in direct contact with the water), or that may come into contact therewith. Also, the sulfurous acid can treat the surfaces of any water system or any surface of any object in the water to inhibit aquatic pest from attaching thereto, remove the aquatic pests from the surface (e.g., descale) or otherwise inhibit the aquatic pest from contaminating the water system. Thus, it may be desirable to apply the sulfurous acid to a water or soil contacting the water or structure confining the water as desired.
Thus, exhaust products from burning sulfur and reaction products of the exhaust products (e.g., reaction products from reacting sulfur dioxide with water or reacting other sulfur-containing substance in the exhaust with water) and water can be used to control the aquatic pets. In one aspect, sulfuric acid is specifically not used in the methods described herein.
Thus, introducing the exhaust products from burning sulfur that has sulfur dioxide (e.g., exhaust directly from a sulfur burn chamber) and reaction products of the exhaust products and water may reduce the calcium in the water in order to control the pests. This may include reducing the overall free calcium level, such as reducing carbonate and bicarbonate levels. In one aspect, the ability of sulfurous acid to degrade carbonates and bicarbonates may contribute to the ability of the present technology controlling pests. […] As referred to herein, the exhaust products include sulfur dioxide and possibly other sulfur-containing substances that are obtained directly from a sulfur burner that burns elemental sulfur.
Treatment can provide clarified water from murky water having one or more of these aquatic pests.

algae = assay: Removal of algae from treated water; type: in vivo; conditions: pH 6.5
Excerpt: In one example, pH 6.5 removed algae in 15 days.

bryozoa = assay: Open-water pond treatment, mortality of bryozoa; type: in vivo
Method: as §2, §3

[1] = inoculated aquatic pond, pH about 6.0-about 6.5, no time stated

Compound	kill of clams (clams)	time until free of cyanobacteria (cyanobacteria; Daybreak reservoirs (surge pond), pH maintained between 6.8-7)	detection of cyanobacteria after treatment (cyanobacteria; Daybreak reservoirs, untreated Jordan Canal areas still positive)	cyanobacteria in waterways downstream from the Daybreak reservoirs (cyanobacteria; downstream of treated reservoirs)	kill of cyanobacteria (cyanobacteria; pH of the treated water between 6-7, more preferably 6.8-7)	kill of non-target fish or other animals (fish or other animals)	kill of zebra mussels (zebra mussels; in 5 days, open water, pH between 6.0 and 6.5)	kill of zebra mussels (zebra mussels; [1])	time until free of anatoxin-a (anatoxin-a)	kill of Asiatic clams (Asiatic clams; in less than one month, open water, pH between 6.0 and 6.5)	kill of Asiatic clams (Asiatic clams; [1])	effect on algae, bacteria, zebra mussel, Asian clam, apple snail, American crab, crayfish, Bryozoans (aquatic pests; in vivo)	kill rates in the aquatic pests (aquatic pests; open and contained water)	effectiveness in controlling aquatic pests versus sulfuric acid (aquatic pests; pH reduced to 7.1 with sulfurous acid versus pH 3.0 with sulfuric acid)	aquatic pest count (aquatic pests; preliminary testing, applied to water having aquatic pest)	time to removal of algae (algae)	kill of bryozoa (bryozoa; in 48 hours, open water, pH between 6.0 and 6.5)	kill of bryozoan (bryozoa; [1])
O=S(=O)(O)O [sulfuric acid]	kill the clams, but only in some cases																	
sulfurous acid		≤ 2 weeks	non-detect	free of cyanobacteria	100%	no fish or other animals were determined to be killed	100%	about 100%	≤ 2 weeks	100%	about 100%	reduce	100%	more effective	reduces the aquatic pest count	15 days	about 100%	about 100%

From patent publication US11174177B2, “Systems and methods for controlling aquatic pests with sulfurous acid” (priority 2017, dated 2021)
